Assay results: publication PMC8804135 (Neurotherapeutics, 2021)
Numbered stars: 1 amine (or outer) side, 2 acyl side, 3 side chain; on linkers, the order of the positions; unused ones are H or OH. Bridge positions count the residues as written; N and C are the ends. Square brackets hold non-standard residues; d marks the D form. Peptide text beside a SMILES is read from it. dAbu(3S-yl) = C[C@@H]([C@@H](N[*:1])C(=O)[*:2])[*:3]; pGlu = O=C1CC[C@@H](C(=O)O)N1

Columns and labels:
[1] = molecular target: T1, GAL1R (Homo sapiens, UniProt P47211); experiment: SRE luciferase reporter assay, GAL1R-transfected HEK293 Gqi cells; conditions: transiently transfected HEK293 Gqi cells; up to 10 µM, 5 h
T1 sequence (P47211 1-349): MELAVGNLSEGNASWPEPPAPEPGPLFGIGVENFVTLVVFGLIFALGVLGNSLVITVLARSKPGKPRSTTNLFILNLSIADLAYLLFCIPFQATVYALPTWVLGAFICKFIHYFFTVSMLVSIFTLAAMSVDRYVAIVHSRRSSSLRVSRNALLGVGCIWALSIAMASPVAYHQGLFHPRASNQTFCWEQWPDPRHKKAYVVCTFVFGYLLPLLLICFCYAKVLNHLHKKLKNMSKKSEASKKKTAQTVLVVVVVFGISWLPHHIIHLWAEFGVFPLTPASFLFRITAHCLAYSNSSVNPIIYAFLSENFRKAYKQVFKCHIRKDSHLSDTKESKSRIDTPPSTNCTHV

[2] = In vitro stability in brain plasma; type: in vitro ADME, rat; conditions: Sprague-Dawley, rat, other tissue homogenate, pH 7.4
Protocol: The method to study the stability of peptides in brain plasma is described in the Supplementary material. […]
receptor-2-selective agonist reduces acute food intake
Anneke Kuipers1, Márta Balasko2, Erika Pétervári2, Andreas Koller3,4, Susanne M.
Brunner3,4, Gert N. Moll1,5, Barbara Kofler 3*
In vitro stability in brain plasma
Sprague dawley rat brain lyophilized powder was purchased from MyBioSource (San Diego, USA). One gram brain powder was reconstituted in 10 ml PBS, 0.5 ml 2 M Tris (pH=8), 100 µl Triton X -100 and 10 mg SDS. The solution was centrifuged and the supernatant was collected, aliquoted and stored at -20 °C until usage. To assess the stability, 10 µM GAL-(1-15) and 10 µM M89b were incubated in 1% brain plasma buffered with 200 mM phosphate buffer (pH 7.4) at 37°C for up to 6 hours. At various time points […]
20 µl 100% ACN. Samples were centrifuged and kept on ice. Full-length peptides were quantified by using a C12 column (C12 RP 250 x 4.60 mm column, Phenomenex) on a JASCO HPLC system and applying a gradient of 20 -90% ACN in 0.1% TFA for 30 minutes.
Peptides were detected at 280 nm. A280 areas in chromatograms of the corresponding GAL-(1-15) and M89b full-length peptide peaks were used to determine the amount of peptide left after incubation with cerebrospinal fluid at the different time points. Peptide peaks were determined using JASCO-Borwin Chromatography software (v1.50).

[3] = mouse, in vivo, 1 mg/kg
Protocol: Pharmacokinetics studies were performed at Pharmidex UK. The animal experimental protocols were approved by the UK Government Home Office and carried out in accordance with the guidelines of the Animals (Scientific Procedures) Act (1986). Ethical approval was subject to UK Home Office license number P651A96A4.
One mg HPLC-purified and HPLC-quantified M89b was dissolved in 1 ml Milli-Q followed by thorough vortexing and warming the solution for 10 min to 60 °C. From this solution, a dilution in 0.1% 2-hydroxypropyl-β-cyclodextrin was made. Male CD1 mice (weighing 26.5 to 32.9 g, n = 3 per time point) were used for the pharmacokinetic studies. Mice were given 1 mg/kg M89b either subcutaneously (s.c.) or intravenously (i.v.). Samples were collected after 2, 5, 10, 15, 30, 60, 120, and 240 min. Post-dosing, the 4 h mice were individually housed in metabolic cages for cold collection of urine in pre-weighed tubes which were re-weighed prior to storage. At each scheduled sampling time point, terminal blood was collected from each animal by cardiac puncture in heparin-containing tubes (20 IU heparin/mL of blood) kept on wet ice. The blood was centrifuged (5 min at 21, 100 g at 4 °C), and the resulting plasma was transferred to the corresponding labeled polypropylene tubes prior to storage. […]

CC(C)C[C@H](NC(=O)[C@H](CC(C)C)NC(=O)[C@H](Cc1ccc(O)cc1)NC(=O)CNC(=O)[C@H](C)NC(=O)[C@H](C)NC(=O)[C@H](CC(N)=O)NC(=O)[C@H](CC(C)C)NC(=O)[C@H](CC(N)=O)NC(=O)[C@H](Cc1c[nH]c2ccccc12)NC(=O)[C@@H]1CCC(=O)N1)C(=O)N[C@@H](C)C(=O)N[C@H]1C(=O)N[C@@H](Cc2c[nH]cn2)C(=O)N[C@@H](C)C(=O)N[C@H](C(=O)NCC(=O)O)CS[C@H]1C [Variant M89b, G1pE-T3N-S6A-G12A-methyllanthionine[13–16]-galanin-(1–17)] ([pGlu]WNLNAAGYLLA[dAbu(3S-yl)]HACG-OH; thioether 13-16; C-terminus assumed)
Stimulation of GAL1R, luciferase reporter [1]: inability to stimulate | remaining at 6 h, 10 µM [2]: ~85% | Detection in urine samples [3]: not detected | Detection in brain tissue ([3]; sc): not detected
